Assay [1] in a line: DAF-2 assay of NO scavenging activity without and with H2O2 (ROS). The conditions noted are these: SNAP 100 µM, DAF-2 10 µM, 3 hours, 37°C; for NO Scavenging Activity (%) (Mean±SD) With H2O2: H2O2 1 mM. Type of assay: biochemical. The protocol:
The pharmaceutical composition sensitive to nitrogen monoxide including the compound according to each of Examples 23 to 28 and 32 may have scavenging activity for reactive oxygen species (ROS). NO scavenging activity of the pharmaceutical composition was evaluated through a DAF-2 assay.
Specifically, to a 100 µM solution of SNAP, the compound synthesized in each of the Examples was added at a concentration of the following Table 2, and reacted. Then 10 µM of DAF-2 was added thereto, followed by a reaction for 3 hours in a 37°C incubator.
Additionally, a stock solution of H2O2 (10 M) was added to the reaction solution so that SNAP and H2O2 had final concentrations of 100 µM and 1 mM, respectively. Then, the compound synthesized in each of the Examples was added thereto at a concentration of the following Table 11, followed by a reaction in the same manner, and NO scavenging activity was calculated by Equation 1.

Assay [2] relates to Raw 264.7 cell line. Put plainly: NO scavenging activity in LPS-treated immune cells (Griess reagent). The settings on record: Mus musculus, RAW264.7, Raw 264.7, LPS 500 ng/mL, 24 hours, read-out: NO Scavenging Activity (%) (Mean±SD). It is filed as cell-based. As to the method: Raw 264.7 cell line was seeded in a 48-well plate at a density of 8×10^4 cells/well, and cultured at 37°C in a DMEM medium including 10% FBS, 100 U/mL of penicillin and 100 µg/mL of streptomycin.
The medium was cultured overnight, and then replaced with a fresh medium including 10 µM of the pharmaceutical composition sensitive to nitrogen monoxide including the compound of each of Examples 1 to 30 and 500 ng/mL of LPS, and the fresh medium was cultured again for another 24 hours.
Lastly, in order to measure the amount of NO produced, the amount of NO2^- present in the cell culture medium was measured using a Griess reagent (sulfanilamide, N-1-naphthylethylenediamine dihydrochloride). Specifically, 100 µL of a Griess reagent was mixed with a mixture solution of 50 µL of the cell culture medium and 50 µL of PBS. The mixture solution was reacted for 10 minutes in a well plate, and absorbance thereof at 540 nm was measured.

In assay [3] the test system is splenocytes. Put plainly: NO scavenging activity in Concanavalin A-treated splenocytes (Griess assay). It is filed as cell-based, C57BL/6 mouse. The settings on record: Mus musculus, Splenocyte, Concanavalin A 5 µg/mL, 72 hours, read-out: NO Scavenging Activity (%) (Mean±SD). The protocol: (§1) A spleen was isolated from an 8-week-old C57BL/6 mouse, and splenocytes were isolated using a physical method.
(§2) The separated splenocytes were diluted to a concentration of 5×10^6 cells/mL in a RPMI 1640 medium including 10% FBS, 100 U/mL of penicillin and 100 µg/mL of streptomycin, and the diluted splenocytes were dispensed at 500 µL/well into a 48-well plate and 100 µL/well into a 96-well plate, and cultured for 72 hours in an incubator. The splenocytes were treated with Concanavalin A (5 µg/mL) when dispensed to induce an immune response, and herein, […] of the pharmaceutical composition including the compound according to each of the Examples was also added thereto. After 72 hours, the supernatant was collected, and the level of remaining NO was checked through a Griess assay, and calculated by the following Equation 4.

Assay [4] deals with IFN-γ. Put plainly: IFN-γ reduction activity in Concanavalin A-treated splenocytes (quantitative ELISA). Type of assay: cell-based, C57BL/6 mouse. The settings on record: Mus musculus, Splenocyte, Concanavalin A 5 µg/mL, 72 hours, read-out: IFN-γ Reduction Activity (%) (Mean±SD). As to the method: as §1, §2
NO is one of important inflammatory mediators, and may increase the level of inflammatory cytokine. Concanavalin A (5 µg/mL), which induces an immune response in splenocytes, and the compound of each of Examples were treated in a concentration-dependent manner to check whether the level of IFN-γ, a representative inflammatory cytokine, was reduced. The supernatant was collected 72 hours after the treatment, and analyzed using a quantitative enzyme-linked immunosorbent assay (Quantitative-ELISA).

Assay [5] has as its system splenocytes. Put plainly: Inhibitory activity on cell proliferation in splenocytes (CCK-8 analysis). The settings on record: Mus musculus, Splenocyte, Concanavalin A 5 µg/mL, 72 hours, read-out: Inhibitory Activity on Cell Proliferation (%) (Mean±SD). It is filed as cell-based, C57BL/6 mouse.

Turning to `C[C@@H]1CCN(C(=O)CC#N)C[C@@H]1N(C)c1ncnc2c1ccn2C(=O)Nc1ccccc1NC(=O)OCc1ccc(B2OC(C)(C)C(C)(C)O2)cc1` [Example 25, 4-(4,4,5,5-tetramethyl-1,3,2-dioxaborolan-2-yl)benzyl (2-(4-(((3R,4R)-1-(2-cyanoacetyl)-4-methylpiperidin-3-yl) (methyl)amino)-7H-pyrrolo[2,3-d]pyrimidine-7-carboxamido)phenyl) carbamate], the “NO Scavenging Activity (%) (Mean±SD) Without H2O2” value in assay [1] (compound 10 µM) is reported as 42.36 ±1.91%. In addition, in assay [1] (compound 10 µM), the “NO Scavenging Activity (%) (Mean±SD) With H2O2” value is listed as 89.96 ±0.19%. The activity at 10 µM in assay [2] was 63.2 ± 0.56%; in assay [3] it was 100%; in assay [4] it was 98.7 ± 0.04%. In assay [5], the inhibition at 10 µM is 81.4 ± 7.94%.
`COc1ccc(NC(=O)OCc2ccc(B3OC(C)(C)C(C)(C)O3)cc2)c(NC(=O)n2ccc3c(N(C)[C@H]4CN(C(=O)CC#N)CC[C@H]4C)ncnc32)c1` [Example 27, 4-(4,4,5,5-tetramethyl-1,3,2-dioxaborolan-2-yl)benzyl (2-(4-(((3R,4R)-1-(2-cyanoacetyl)-4-methylpiperidin-3-yl) (methyl)amino)-7H-pyrrolo[2,3-d]pyrimidine-7-carboxamido)-4-methoxyphenyl)carbamate]: the “NO Scavenging Activity (%) (Mean±SD) Without H2O2” value in assay [1] (compound 10 µM) is 59.31 ±0.55%. Also, the “NO Scavenging Activity (%) (Mean±SD) With H2O2” value in assay [1] (compound 10 µM) is on record as 97.09 ±0.01%. In addition, the activity at 10 µM in assay [2] worked out at 59.3 ± 0.06%; in assay [3], 77.6 ± 1.24%; in assay [4], 74.6 ± 2.41%. In assay [5], the inhibition at 10 µM is 81.1 ± 9.03%.
Turning to `C[C@@H]1CCN(C(=O)CC#N)C[C@@H]1N(C)c1ncnc2c1ccn2C(=O)N(C)CCN(C)C(=O)Nc1cc2c(cc1NC(=O)OCc1ccc(B(O)O)cc1)n(C)c(=O)n2C` [Example 24, (4-((((6-(3-(2-(4-(((3R,4R)-1-(2-cyanoacetyl)-4-methylpiperidin-3-yl)(methyl)amino)-N-methyl-7H-pyrrolo[2,3-d]pyrimidine-7-carboxamido)ethyl)-3-methylureido)-1,3-dimethyl-2-oxo-2,3-dihydro-1H-benzo[d]imidazol-5-yl)carbamoyl)oxy)methyl)phenyl)boronic acid], the “NO Scavenging Activity (%) (Mean±SD) Without H2O2” value was 16.43 ±4.86% in assay [1] (compound 1 µM), 27.84 ±7.68% in assay [1] (compound 5 µM) and 40.54 ±3.96% in assay [1] (compound 10 µM). The “NO Scavenging Activity (%) (Mean±SD) With H2O2” value was found to be 34.66 ±3.80% in assay [1] (compound 1 µM), 43.58 ±6.00% in assay [1] (compound 5 µM) and 53.52 ±3.09% in assay [1] (compound 10 µM). Further, the activity at 10 µM in assay [2] is 9.8 ± 0.64%; in assay [3], 78.3 ± 0.5%; in assay [4] it was 95.5 ± 0.15%. In addition, the inhibition at 10 µM in assay [5] is 67.2 ± 4.67%.
On to `Cc1ccc(NC(=O)OCc2ccc(B3OC(C)(C)C(C)(C)O3)cc2)c(NC(=O)n2ccc3c(N(C)[C@H]4CN(C(=O)CC#N)CC[C@H]4C)ncnc32)c1` [Example 26, 4-(4,4,5,5-tetramethyl-1,3,2-dioxaborolan-2-yl)benzyl (2-(4-(((3R,4R)-1-(2-cyanoacetyl)-4-methylpiperidin-3-yl) (methyl)amino)-7H-pyrrolo[2,3-d]pyrimidine-7-carboxamido)-4-methylphenyl)carbamate], for which the “NO Scavenging Activity (%) (Mean±SD) Without H2O2” value in assay [1] (compound 10 µM) stood at 42.98 ±2.51%. For the same compound, the “NO Scavenging Activity (%) (Mean±SD) With H2O2” value in assay [1] (compound 10 µM) was determined as 92.96 ±0.04%. The activity at 10 µM in assay [2] was 73.7 ± 0.33%; in assay [3] it was 100%; in assay [4], 97.4 ± 0.1%. The inhibition at 10 µM in assay [5] came out at 75.6 ± 0.96%.

The record behind these values is patent EP4741395A1, “NOVEL COMPOUND SENSITIVE TO NITROGEN MONOXIDE AND PHARMACEUTICAL COMPOSITION COMPRISING SAME” (Omniamed Co. Ltd, priority 2023, dated 2025).
